Experiments:
[1] = test system: southern armyworm; assay: Lepidopteran efficacy: neonate southern armyworm via lima bean leaf dip; assay type: in vivo; conditions: Spodoptera eridania, foliar, 96 h, broflanilide @ 0.0025 ppm, 4 DAT, read-out: Mean % Mortality @ Days after Treatment 4 DAT
Excerpt: (§1) Synergism can be described as an interaction where the combined effect of two or more compounds is greater than the sum of the individual effects of each of the compounds.
(§2) When the observed combined control effect is greater than the expected combined control effect (E), then the combined effect is synergistic.
(§3) Large leaf lima bean (southern armyworm) and radish (diamondback moth) were dipped in treatment solution and allowed to dry. The leaves were excised and placed individually into square petri dishes containing two filter paper discs moistened with 0.5 ml of reverse osmosis water. One neonate insect per dish (total of 20 dishes per treatment, grouped into 5 dishes per replicate) were infested for the test with southern armyworm. Five insects per dish (total of 5 dishes per treatment) were infested for the test with diamondback moth. The studies were held in an environmental chamber 14 L: 10 D at 30° C. and 70% RH. The number of dead and moribund insects were recorded (moribund was considered dead). Rate rundowns were conducted initially to determine sublethal rates for the combination testing.
(§4) 5 replications with 5 insects are each conducted per treatment, insects are held singly.
(§5) Control mortality is less than 15% and standard treatments yielded 100% mortality.

[2] = test system: diamondback moth; assay: Lepidopteran efficacy: neonate diamondback moth via radish leaf dip; assay type: in vivo; conditions: Plutella xylostella, foliar, 48 h, broflanilide @ 0.01 ppm, 2 DAT, read-out: Mean % Mortality @ Days after Treatment 2 DAT
Excerpt: as §1, §2, §3, §4, §5

## CN(C(=O)c1ccccc1)c1cccc(C(=O)Nc2c(Br)cc(C(F)(C(F)(F)F)C(F)(F)F)cc2C(F)(F)F)c1F [broflanilide]
[1]
  mortality at 0.0025 ppm: 23.5%
[2]
  mortality at 0.01 ppm: 44%
